Measurements taken from US20100152261A1 (MITSUBISHI TANABE PHARMA CORPORATION, priority 2005, published 2010).
Read-outs that look alike come from different tables or passages of the source.

Experiments:
muscarinic M3 receptor = target: T1, muscarinic M3 receptor (Cavia porcellus, UniProt H0W1Z3); assay: Muscarinic M3 antagonistic action in isolated guinea pig trachea (carbachol-induced contraction, Schild method); type: cell-based; settings: compound applied 15 minutes before carbachol
T1 construct: trachea was excised, and cut at every two tracheal cartilages to prepare tissue specimens; from tissue; host or cells: isolated guinea pig trachea (male Hartley)
T1 sequence (H0W1Z3 1-590): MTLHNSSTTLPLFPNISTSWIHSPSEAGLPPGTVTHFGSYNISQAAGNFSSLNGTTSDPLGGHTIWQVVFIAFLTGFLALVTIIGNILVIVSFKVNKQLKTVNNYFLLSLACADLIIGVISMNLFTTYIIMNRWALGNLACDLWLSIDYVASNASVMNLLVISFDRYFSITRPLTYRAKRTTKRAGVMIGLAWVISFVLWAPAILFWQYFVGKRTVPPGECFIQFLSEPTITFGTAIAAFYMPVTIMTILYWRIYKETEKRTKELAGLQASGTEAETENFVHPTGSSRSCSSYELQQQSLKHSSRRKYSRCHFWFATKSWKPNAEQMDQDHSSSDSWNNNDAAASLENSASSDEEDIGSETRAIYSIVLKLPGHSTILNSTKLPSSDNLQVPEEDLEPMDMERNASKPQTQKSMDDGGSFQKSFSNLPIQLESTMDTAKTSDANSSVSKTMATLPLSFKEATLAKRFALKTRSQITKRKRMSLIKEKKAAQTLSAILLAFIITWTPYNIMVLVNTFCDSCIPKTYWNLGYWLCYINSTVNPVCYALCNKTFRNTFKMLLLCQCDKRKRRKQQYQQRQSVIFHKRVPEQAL
Experimental: Muscarinic M3 Antagonistic Action in Isolated Guinea Pig Trachea
Male Hartley guinea pigs (350 to 600 g) were sacrificed by bleeding, and trachea was excised, and cut at every two tracheal cartilages to prepare tissue specimens. Each tissue specimen was kept warm at 37° C., suspended with a resting tension of 1 g in a 5-mL Magnus bath filled with a Krebs carbonate buffer containing indomethacin (1 μM) bubbled with 95% O2/5% CO2, and left for 60 minutes as a stabilization period. […] After the measurement, the tissue specimen was immediately washed, and left for 60 minutes as a stabilization period before the next contraction reaction, and the tissue specimen of which EC50 for the carbachol-induced contraction reaction was stabilized was considered as a control. Each test compound was applied 15 minutes before the addition of carbachol. The affinity (pA2) of the test compound was obtained by the Schild method (Arunlakshana, O. and Schild, H. O., Brit. J. Pharmacol., 1959, 14, 48-58).

muscarinic M2 receptor = target: T2, muscarinic M2 receptor (Cavia porcellus, UniProt H0VRN8); assay: Muscarinic M2 antagonistic action in isolated guinea pig left atrium (carbachol-induced relaxation, Schild method); type: cell-based; settings: compound applied 30 minutes before carbachol
T2 construct: left atria were excised to prepare tissue specimens; from tissue; host or cells: isolated guinea pig left atrium (male Hartley)
T2 sequence (H0VRN8 1-466): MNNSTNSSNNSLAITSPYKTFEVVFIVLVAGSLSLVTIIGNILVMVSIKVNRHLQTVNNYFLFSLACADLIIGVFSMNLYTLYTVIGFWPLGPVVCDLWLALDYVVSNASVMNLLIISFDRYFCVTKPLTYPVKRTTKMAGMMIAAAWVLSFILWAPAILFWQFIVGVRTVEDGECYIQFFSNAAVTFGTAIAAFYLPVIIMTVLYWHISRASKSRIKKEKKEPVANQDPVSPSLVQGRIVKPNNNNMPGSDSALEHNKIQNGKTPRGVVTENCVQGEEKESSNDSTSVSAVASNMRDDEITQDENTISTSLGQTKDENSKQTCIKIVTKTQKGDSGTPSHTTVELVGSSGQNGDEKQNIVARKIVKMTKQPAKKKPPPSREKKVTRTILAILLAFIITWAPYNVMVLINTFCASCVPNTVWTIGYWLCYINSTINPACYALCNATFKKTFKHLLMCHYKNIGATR
Experimental: Muscarinic M2 Antagonistic Action in Isolated Guinea Pig Left Atrium […] Each tissue specimen was kept warm at 37° C., suspended with a resting tension of 0.5 g in a 5-mL Magnus bath filled with a Krebs carbonate buffer bubbled with 95% O2/5% CO2. Then, contraction evoked by field electrical stimulation (4 Hz, 2 msec, 1.5×threshold potential) was measured. After a stabilization period of 60 minutes, carbachol-induced relaxation was isometrically measured and recorded by the cumulative method from 10^−8 M with an interval of 90 seconds for one concentration in an equal ratio of 3. After the measurement, the tissue specimen was immediately washed, and left for 45 minutes as a stabilization period before the next observation. The tissue specimen of which EC50 for the carbachol-induced relaxation was stabilized was considered as a control. Each test compound was applied 30 minutes before the addition of carbachol. The affinity (pA2) of the test compound was obtained in the same manner as in the case of the trachea.

[1] = system: Bronchoconstriction in Guinea Pigs (induced with acetylcholine); assay: Effect on bronchoconstriction in guinea pigs (via inhalation administration), Konzett method; type: in vivo; settings: Cavia porcellus, iv; guinea pig, intratracheal administration 10 μL g/head, 24 hours after administration, acetylcholine 4 μg/kg i.v., versus control group; read-out: Percent of inhibition of bronchoconstriction (%)
Experimental: Effect on Bronchoconstriction in Guinea Pigs (Via Inhalation Administration)
The test was performed according to the method of Konzett et al. (Arch. Exp. Path Pharmak., 1940, 195, 71-74). Male Hartley guinea pigs (350 to 600 g) were anesthetized with urethane (1.8 g/kg, i.p.), and then a cannula for drug administration was inserted into each left jugular vein. After the immobilization with decamethonium (2 mg/kg, i.v.), a tracheal cannula was inserted, and controlled respiration was attained by a respirator (Harvard). Bronchoconstriction was measured as changes of airway pressure with a pressure transducer (Nihon Kohden Corp.). Each test compound was administered (10 μL g/head) from dissected trachea by using a device for intratracheal administration of liquid for guinea pigs (Penn Century), and after suture, the animals were returned to usual breeding. After 24 hours, acetylcholine (4 μg/kg, i.v.) was administered to induce bronchoconstriction, and inhibitory activity on bronchoconstriction was calculated as percent inhibition comparing to the change of airway pressure in control group was obtained.

[2] = pA2 Trachea M3, isolated guinea pig trachea
[3] = pA2 Left atrium M2, isolated guinea pig left atrium

Compound	Kb (muscarinic M3 receptor; [2]) [nM]	Kb (muscarinic M2 receptor; [3]) [nM]	inhibition in vivo at 0.01 mg [1] [%]	Kb (muscarinic M3 receptor; isolated guinea pig trachea, read-out: pA2 Trachea M3 (converted)) [nM]	Kb (muscarinic M2 receptor; isolated guinea pig left atrium, read-out: pA2 Left atrium M2 (converted)) [nM]
COCC[n+]1ccn([C@@H]2CC[C@H](C(C(N)=O)(c3ccccc3)c3ccccc3)C2)c1C [Example 63, 3-((1R,3S)-3-(Carbamoyl(diphenyl)methyl)cyclopentyl)-1-(2-methoxyethyl)-2-methyl-3H-imidazol-1-ium bromide]	0.316	7.94	100	–	–
Cc1n([C@H]2CC[C@@H](C(C(N)=O)(c3ccccc3)c3ccccc3)C2)cc[n+]1Cc1ccccc1 [Example 83, 3-((1S,3R)-3-(Carbamoyl(diphenyl)methyl)cyclopentyl)-1-benzyl-2-methyl-3H-imidazol-1-ium bromide]	–	–	100	0.0794	5.01
CC(=O)C[n+]1ccn([C@@H]2CC[C@H](C(C(N)=O)(c3ccccc3)c3ccccc3)C2)c1C [Example 90, 3-((1R,3S)-3-(Carbamoyl(diphenyl)methyl)cyclopentyl)-2-methyl-1-(2-oxopropyl)-3H-imidazol-1-ium bromide]	0.794	316	100	–	–
Cc1n([C@@H]2CC[C@H](C(C(N)=O)(c3ccccc3)c3ccccc3)C2)cc[n+]1Cc1ccccc1 [Example 91, 3-((1R,3S)-3-(Carbamoyl(diphenyl)methyl)cyclopentyl)-1-benzyl-2-methyl-3H-imidazol-1-ium bromide]	0.1	3.98	100	–	–
